Experimental findings from patent US11040117B2, “Treatment of a subtype of ASD” (Stalicla S.A., priority 2017, dated 2021) are described below.

This assay concerns ASD phenotype 1 lymphoblastoid cell lines. The experiment in a line: Biolog Phenotype Mammalian MicroArrays (PM-M): NADH production, colorimetric redox dye. Format: cell-based, human. Conditions: cells exposed to the substance; AUC and endpoint absorbance. Here is the method: From all subjects, blood samples were collected and lymphoblastoid cell lines generated. Briefly, tubes containing anticoagulant citrate dextrose (ACD) were used to collect blood samples via venipuncture, in order to ensure that the blood cells remained metabolically active. The tubes were kept at room temperature and processed within 24 hours.
Cell lines were obtained by immortalization of lymphocytes from blood samples using Epstein-Barr virus.
Energy production of cells was measured using commercially available Phenotype Mammalian MicroArrays (PM-Ms, Biolog, Hayward, Calif., USA).
The compound in each well was designed to be used by the cells, either as the sole energy source or as the metabolic effector influencing the utilization of an energy source (α-D-glucose) added in the cell suspension. […] Before plating, cell viability and number were assessed utilizing a BioRad cell counter and a trypan blue dye. The concentration of live cells required for plating was 4×10^5 cells/mL, corresponding to 20,000 cells per well in a volume of 50 μL. […] Cells were incubated for 48 h at 37° C. in 5% CO2, using the modified Biolog IF-M1 medium.
The Biolog IF-M1 medium was modified for plates PM-M1 to M4 by adding the following to 100 mL of Biolog IF-M1: 1.1 mL of 100× penicillin/streptomycin solution, 0.16 mL of 200 mM glutamine (final concentration 0.3 mM), and 5.3 mL of Fetal Bovine Serum (FBS, final concentration 5%). For plates PM-M5 to M8, 5.5 mM α-D-glucose will be added in place of FBS.
During the 48-hour incubation, the only energy source the cells had was the chemical in the well. After this first incubation, Biolog Redox Dye Mix MB was added (10 μL/well) and the plates were incubated under the same conditions for an additional 24 hours. As the cells metabolized the energy source, tetrazolium dye in the media was reduced, producing a purple color according to the amount of NADH generated.
For the last 24 hours of the experiment, the plates were incubated in the Omnilog system, which collects optical density readings every 15 minutes, generating 96 data-points for each well. The system also elaborated the kinetic curve for the metabolic reaction in each well and extrapolated parameters such as slope, highest point, endpoint, area under the curve (AUC), and lag.
At the end of the 24-hour incubation, the plates were analyzed utilizing a microplate reader with readings at 590 and 750 nm. The first value (A590) indicated the highest absorbance peak of the redox dye and the second value (A750) gave a measure of the background noise. The relative absorbance (A590-750) was calculated per well.

For the substance “FGF-1(aFGF): growth factor that selectively targets the PI3K-Akt-mTOR by binding the receptor tyrosine kinase”, the “production of NADH in ASD phenotype 1 cells compared to TDs and non-phenotype 1 cells” value is “significantly reduced production of NADH”. The value for “IGF-I: insulin-like growth factor 1; targets less specifically the PI3K-AKT-mTOR pathway in LCLs” was “no significant differences”.

In the case of IL-1beta: Th1 cytokine, the “production of NADH in ASD phenotype 1 cells compared to TDs and non-phenotype 1 cells” value is reported as “significantly lower levels of NADH”. The value for IL-6: Th1 cytokine was “significantly lower levels of NADH”; that for “PDGF-AB: platelet-derived growth factor AB” was “no significant differences”. The same measure for “hGH(Somatotropin): growth factor that selectively targets the PI3K-Akt-mTOR by binding the receptor tyrosine kinase”: “significantly reduced production of NADH”.
